Laboratory results from patent publication US12134651B2, “Anti-Ryk antibodies and methods of using the same” (The Regents of the University of California, priority 2016, dated 2024).
Entries after “also recorded” stand apart in the source; their conditions may differ.

System: E16.5 cortical neurons
Test: Protection of cortical neurons from axonal degeneration induced by aPKC PS
Format: cell-based, mouse
Details: 10 μM taxol 2 h prior to and during 2 h treatment of 7 μM aPKC PS
Description: Cerebral cortical cell culture—E16.5 mouse pregnant females were sacrificed by CO2 asphyxia and cervical dislocation. Embryos were removed from uterine horns. Skin, skull, and meninges were removed from embryo heads. The cortex was dissected in L-15 medium (Sigma), digested with 0.025% trypsin/0.221 mM EDTA (Mediatech) for 20 min followed by incubation in 5% horse serum prepared in L-15 medium for 5 min to inhibit trypsin. […]
Image acquisition and analysis—All images were acquired on an inverted Zeiss LSM510 confocal microscope with LSM acquisition software (Carl Zeiss Microscopy). For quantification of P-PKCζ T410 immunoreactivity in cell cultures, exposure time was adjusted to be under the saturation level for the highest immunofluorescence signal and was conserved between the different samples. Mean immunofluorescence intensity level in neuronal cell bodies was measured using FiJi-ImageJ software (NIH). All quantifications were performed on 10 non-overlapping fields in cell cultures from at least three independent experiments and on four non-consecutive sections from at least three animals for in vivo experiments. […]

CC(=O)O[C@H]1C(=O)[C@@]2(C)[C@H]([C@H](OC(=O)c3ccccc3)[C@]3(O)C[C@H](OC(=O)[C@H](O)[C@@H](NC(=O)c4ccccc4)c4ccccc4)C(C)=C1C3(C)C)[C@]1(OC(C)=O)CO[C@@H]1C[C@@H]2O [taxol, reference compound]
axon degeneration induced by aPKC inhibition: reduced; also recorded: partially prevented
